Activity calls are given as the source filed them. The calls are words filed in the database; no cut-off is given here.
Legend:
[1] = target: T1, Sigma non-opioid intracellular receptor 1 (Cavia porcellus, UniProt Q60492); test: Displacement of [3H]-(+)-pentazocine from sigma1 receptor in guinea pig brain membrane incubated for 120 mins by solid scintillation counting method; assay type: cell membranes, Cell membrane
[2] = target: T2, Sigma intracellular receptor 2 (Rattus norvegicus, UniProt Q5U3Y7); test: Displacement of [3H]-di-o-tolylguanidine from Sigma 2 receptor in rat liver membrane incubated for 120 mins by solid scintillation counting method; assay type: cell membranes, Cell membrane
T2 sequence (Q5U3Y7 whole entry): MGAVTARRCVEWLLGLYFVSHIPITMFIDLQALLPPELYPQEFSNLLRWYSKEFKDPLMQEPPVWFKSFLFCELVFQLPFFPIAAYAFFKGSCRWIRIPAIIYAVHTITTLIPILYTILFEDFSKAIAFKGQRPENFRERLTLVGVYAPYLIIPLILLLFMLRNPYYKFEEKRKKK

[3] = target: Sigma non-opioid intracellular receptor 1 (Cavia porcellus) (UniProt Q60492); test: Displacement of [3H]-(+)-pentazocine from sigma1 receptor in guinea pig brain membrane at 1 uM incubated for 120 mins by solid scintillation counting method; assay type: cell membranes; settings: Cell membrane
Sus scrofa = species: Sus scrofa; test: Displacement of [3H]-(+)-MK-801 from PCP binding site of NMDA receptor in pig brain cortex membranes after 120 mins by solid scintillation counting method; settings: Cell membrane
[4] = target: T3, Sigma intracellular receptor 2 (Rattus norvegicus) (UniProt Q5U3Y7); test: Displacement of [3H]-di-o-tolylguanidine from Sigma 2 receptor in rat liver membrane at 1 uM incubated for 120 mins by solid scintillation counting method; assay type: cell membranes; settings: Cell membrane
T3 sequence (whole entry): T2 sequence (Q5U3Y7 whole entry)

[5] = Dissociation constant, pKa of the compound; assay type: physicochemical
[6] = target: T1, Sigma non-opioid intracellular receptor 1; test: Displacement of [3H]-pentazocine from sigma1 receptor in guinea pig brain membrane incubated for 150 mins by scintillation counting method; assay type: cell membranes, Cell membrane
[7] = Displacement of [3H]-di-o-tolylguanidine from Sigma 2 receptor in guinea pig brain membrane incubated for 120 mins by scintillation counting method; assay type: cell membranes, Cavia porcellus, Cell membrane

Sigma non-opioid intracellular receptor 1 (Cavia porcellus), sequence (Q60492 whole entry): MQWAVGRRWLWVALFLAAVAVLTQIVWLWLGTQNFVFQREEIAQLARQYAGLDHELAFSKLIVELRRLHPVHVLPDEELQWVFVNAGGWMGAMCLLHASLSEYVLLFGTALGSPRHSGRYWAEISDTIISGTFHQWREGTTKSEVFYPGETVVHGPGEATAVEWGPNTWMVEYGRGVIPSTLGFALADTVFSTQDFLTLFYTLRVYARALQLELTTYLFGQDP
T1 sequence (Q60492 whole entry): as above

Structure (SMILES)	inhibition [3] [%]	Activity (Sus scrofa)	inhibition [4] [%]	further results
N[C@@H]1C[C@H]1c1ccccc1.N[C@H]1C[C@@H]1c1ccccc1 (racemic) [TRANYLCYPROMINE]	–	–	–	Ki [1]: 1800 nM; Ki [2]: 6200 nM
Cc1ccc(C2(F)CC2N)cc1 (cis isomer)	25	inactive	–	Ki [2]: 3100 nM
NC1CC1(F)c1ccc([N+](=O)[O-])cc1 (stereo in doubt; 25b)	1	inactive	53	–
FC1(c2ccccc2)CC1NCc1ccccc1 (stereo not given)	0	inactive	0	–
NC1CC1(F)c1ccc(S(F)(F)(F)(F)F)cc1 (trans isomer) [listing 1 of 2 here]	–	inactive	–	–
NC1CC1(F)c1ccc(F)cc1 (stereo in doubt; 17b) [listing 1 of 2 here]	–	inactive	–	–
COc1ccc(C2(F)CC2N)cc1 (trans isomer) [listing 1 of 2 here]	–	–	–	Ki [1]: 4.8 nM; pKa ([5]; read-out: pKa): 7.5
COc1ccc(C2(F)CC2N)cc1 (trans isomer) [listing 2 of 2 here]	–	inactive	32	–
NC1CC1(F)c1cccc(F)c1 (trans isomer)	0	inactive	31	–
NC1CC1(F)c1ccc(F)cc1 (trans isomer) [listing 1 of 2 here]	–	–	–	Ki [2]: 1200 nM
NC1CC1(F)c1ccc(S(F)(F)(F)(F)F)cc1 (cis isomer)	17	inactive	–	–
NC1CC1(F)c1ccc(C(F)(F)F)cc1 (trans isomer) [listing 1 of 2 here]	–	inactive	–	–
NC1CC1(F)c1ccc(F)cc1 (stereo in doubt; 17b) [listing 2 of 2 here]	–	–	–	Ki [1]: 428 nM; Ki [2]: 2400 nM
NCC1CC1(F)c1ccccc1 (stereo not given)	–	inactive	24	Ki [1]: 429 nM
COc1cccc(C2(F)CC2N)c1 (trans isomer) [listing 1 of 2 here]	–	–	–	pKa ([5]; read-out: pKa): 6.63
COc1ccc(C2(F)CC2N)cc1OC (stereo not given)	24	inactive	–	Ki [2]: 3100 nM
Fc1cccc(C2(F)CC2NCc2ccccc2)c1 (trans isomer)	0	inactive	0	–
COC(=O)C1(c2ccccc2)CC1CNC12CC3CC(CC(C3)C1)C2 (racemic; trans)	–	–	–	Ki [6]: 226 nM; Ki [7]: 135 nM
NC1CC1(F)c1cccc([N+](=O)[O-])c1 (cis isomer)	13	inactive	49	–
COc1cccc(C2(F)CC2N)c1.Cl (cis isomer)	–	–	–	pKa [5]: 6.89
NC1CC1(F)c1ccc(C(F)(F)F)cc1 (stereo in doubt; 20b) [listing 1 of 2 here]	–	–	–	Ki [1]: 13 nM; Ki [2]: 95 nM; pKa ([5]; read-out: pKa): 7

Structure (SMILES)	inhibition [3] [%]	Activity (Sus scrofa)	inhibition [4] [%]	further results
NC1(c2ccccc2)CC1(F)c1ccccc1 (trans isomer) [listing 1 of 2 here]	–	inactive	–	–
NC1CC1(F)c1ccc(C(F)(F)F)cc1 (stereo in doubt; 20b) [listing 2 of 2 here]	–	inactive	–	–
NC1CC1(F)c1ccccc1 (cis isomer)	30	inactive	23	–
CNC1CC1(F)c1ccccc1 (racemic)	0	inactive	19	–
NC1(c2ccccc2)CC1(F)c1ccccc1 (trans isomer) [listing 2 of 2 here]	–	–	–	Ki [1]: 399 nM; Ki [2]: 2300 nM
NC1CC1(F)c1ccc(F)cc1 (trans isomer) [listing 2 of 2 here]	27	inactive	–	–
NC1CC1(F)c1cccc([N+](=O)[O-])c1 (trans isomer)	16	inactive	18	–
NC1CC1(F)c1ccc(Cl)cc1 (cis isomer)	–	inactive	–	Ki [1]: 1500 nM; Ki [2]: 2000 nM
NC1CC1(F)c1ccc(C(F)(F)F)cc1 (trans isomer) [listing 2 of 2 here]	–	–	–	Ki [1]: 1900 nM; Ki [2]: 911 nM
NC1CC1(F)c1cccc(F)c1 (stereo in doubt; 27b)	0	inactive	16	–
COc1cccc(C2(F)CC2N)c1 (trans isomer) [listing 2 of 2 here]	25	inactive	–	–
NC1CC1(F)c1ccc([N+](=O)[O-])cc1 (trans isomer)	13	inactive	0	–
NC1CC1(F)c1ccc(S(F)(F)(F)(F)F)cc1 (trans isomer) [listing 2 of 2 here]	–	–	–	Ki [1]: 660 nM
NCCC1CC1(F)c1ccccc1 (stereo not given)	24	inactive	5	–
COC(=O)C1(c2ccccc2)CC1CNC12CC3CC(CC(C3)C1)C2 (racemic; cis)	–	–	–	Ki [6]: 3 nM; Ki [7]: 23 nM
NC1(c2ccccc2)CC1(F)c1ccccc1 (stereo in doubt; 24b) [listing 1 of 2 here]	–	inactive	–	–
CNC1CC1(F)c1ccccc1 (stereo in doubt; 11a)	0	inactive	0	–
COc1ccc(C2(F)CC2N)cc1 (stereo in doubt; 19b) [listing 1 of 2 here]	–	–	–	Ki [1]: 366 nM
NC1(c2ccccc2)CC1(F)c1ccccc1 (stereo in doubt; 24b) [listing 2 of 2 here]	–	–	–	Ki [1]: 527 nM; Ki [2]: 7100 nM
COc1ccc(C2(F)CC2N)cc1 (stereo in doubt; 19b) [listing 2 of 2 here]	–	inactive	33	–
COc1cccc(C2(F)CC2N)c1 (cis isomer)	14	inactive	–	–
